According to patent US20160089545A1, “METHODS AND APPARATUS FOR DELIVERY OF MOLECULES ACROSS LAYERS OF TISSUE” (EP Technologies LLC, priority 2013, published 2016):
Like-named read-outs stand apart in the source and are kept apart here. Values belong to the compound of their own block, whether it stands above or below them.

Experimental: In this example, a vertical Franz diffusion apparatus (PermeGear Inc, PA) was used for all transport studies. Human skin samples with intact stratum corneum (SC) from back and thigh region were used, which were split thickness (dermatome 250 μm). The skin was kept at −80° C. until the day of treatment. On the day of treatment the skin was thawed to room temperature and kept in a humidified box for 1 hour. The skin was washed with water and pat-dried with paper towels. The skin was cut in to 1″×1″ pieces and was placed between the donor and receiver compartments with temperature maintained at 37±1° C. using water circulator. Effective surface area for transport studies were kept constant at 1.77 cm^2. The receiver compartment was filled with 10 mL of freshly prepared phosphate buffered saline (PBS) (pH 7.4) and donor compartment with 0.5-1.0 mL of permeant solution. One mL samples were withdrawn from the receiver compartment at pre-determined time points and estimated for propofol using high performance liquid chromatography.
In vitro permeation studies were carried out using the experimental setup described above. Drugs reconstituted in water or buffer at 10 mg/mL concentration in the donor compartment was used for transport studies across the human skin, Permeation studies were carried out for a period of 3-6 h and samples were analyzed for using HPLC technique.
In some experiments, the human skin was treated with non-thermal DBD plasma for periods of time up to about 1 min and the following plasma power source parameters were varied: the frequency (Hz) was varied between about 100 and about 3500 Hz, the voltage was varied from about 11 kV to 20 kV, the pulse duration was varied between about 1 and about 10 μs, the duty cycle was varied between about 1 to about 100%, and the time of treatment ranged from between about 0.5 to about 1 minutes. […] Three different runs were carried out, the first in which the plasma generator was operated with a frequency of 2500 Hz, pulse duration of 1 μs, voltage of 15 kV and 100% duty cycle (which corresponds to setting 7100 in FIG. 10), the second with the plasma generator operated with a frequency of 2500 Hz, pulse duration of 5 μs, voltage of 17 kV and 100% duty cycle (which corresponds to setting 7500 in FIG. 10), and the third with the plasma generator operated with frequency of 3500 Hz, pulse duration of 5 μs, voltage of 19 kV and 100% duty cycle (which corresponds to setting 9500 in FIG. 10). A fourth control run was also carried out in which the skin sample was not subjected to plasma treatment before being contacted with the nicotine-containing test formulation.

SMILES: CN1CCCC1c1cccnc1 (stereo not shown) [nicotine]
factor of enhancement of transdermal delivery as compared with the control (3 hour permeation period, 3500 Hz, pulse duration 5 μs, 19 kV, 100% duty cycle (setting 9500)): approximately 33

SMILES: Cn1c(=O)c2c(ncn2C)n(C)c1=O [caffeine]
factor of enhancement of transdermal delivery as compared with the control (human, 4 h, 10 mg/mL, pH 7.4): approximately 7

factor of enhancement of transdermal delivery (human, 4 h, 10 mg/mL, pH 7.4): approximately 2
factor of enhancement of transdermal delivery (human, 4 h, pH 7.4): about 4
SMILES: O=C(O)Cc1ccccc1Nc1c(Cl)cccc1Cl [diclofenac sodium]
